Consider two molecules from patent US20070065385A1, “Cold production method for pearly lustre preparations containing alcohols” (Clariant International, Ltd., priority 2005, published 2007).

Data set [1] in a line: Degree of hydrolysis of stearoxytrimethylsilane to stearyl alcohol in ethanol/water at varying pH, by GC analysis. Conditions: for % Hydrolysis of Stearoxytrimethylsilane to Stearyl Alcohol: 25° C., 5 wt% in 90 wt% ethanol/5 wt% D.I. water. In kind it is physicochemical. An excerpt: The pearlescent effect of the present invention appears to be produced by the interaction of the siloxane compound, trimethylsilylalkylsilsesquioxane in the alcoholic hydrogel. It is believed that the trimethylsilylalkylsilsesquioxanes, such as stearoxytrimethylsilane, which is initially a liquid in anhydrous form, after dispersion in the alcoholic hydrogel, undergoes a degree of hydrolysis which results in the formation of finely dispersed crystals of pure stearyl alcohol in the alcoholic hydrogel. This process continues until the pearlescent appearance, or the desired degree of opacity is achieved. The degree of pearlescence or the density of the opacity can be controlled by controlling the amount of the siloxane and other components. The pH of the mixture influences the speed of the hydrolysis reaction. Preferably, the pH of the mixture of the alcoholic hydrogel and the trimethylsilylalkylsilsesquioxane is from 3 to 6.
The degree of hydrolysis of stearoxytrimethylsilane was determined in an ethanol/water mixture at varying pH levels ranging from 4.4 to 9.1. A mixture comprising 5 weight percent anhydrous stearoxytrimethylsilane (Available from Clariant Corp., as SILCARE 1 M71), 90 weight percent ethanol and 5 weight percent de-ionized water (D.I.) was subjected to various pH levels and the degree of hydrolysis to stearyl alcohol was determined by GC analysis.

For data set [2] the following is noted: cited from earlier work.

On to `CCCCCCCCCCCCCCCCCCO[Si](C)(C)C` [Stearoxytrimethylsilane, stearoxytrimethylsilane], for which the speed of hydrolysis result in data set [1] (below a pH of 6) is given as “quickly hydrolyses”. Moreover, the “% Hydrolysis of Stearoxytrimethylsilane to Stearyl Alcohol” value (from here on “% Hydrolysis of Stearoxytrimethylsilane”) in data set [1] (pH (initial) 4.4, 2 Days) is above 99%; in data set [1] (pH (initial) 4.4, 14 Days), above 99%; in data set [1] (pH (initial) 4.4, 15 minutes (initial)), above 99%; in data set [1] (pH (initial) 5.3, 2 Days) it was above 99%; in data set [1] (pH (initial) 5.3, 14 Days), above 99%; in data set [1] (pH (initial) 5.3, 15 minutes (initial)), above 99%. Also, the “% Hydrolysis of Stearoxytrimethylsilane” value is 97% in data set [1] (pH (initial) 5.5, 2 Days); above 99% in data set [1] (pH (initial) 5.5, 14 Days); 55% in data set [1] (pH (initial) 5.5, 15 minutes (initial)); 36% in data set [1] (pH (initial) 6.2, 2 Days); 95% in data set [1] (pH (initial) 6.2, 14 Days); 6% in data set [1] (pH (initial) 6.2, 15 minutes (initial)). In addition, the “% Hydrolysis of Stearoxytrimethylsilane” value came out at 10% in data set [1] (pH (initial) 8.1, 2 Days); 48% in data set [1] (pH (initial) 8.1, 14 Days); 2% in data set [1] (pH (initial) 8.1, 15 minutes (initial)); 4% in data set [1] (pH (initial) 9.1, 2 Days); 21% in data set [1] (pH (initial) 9.1, 14 Days); 2% in data set [1] (pH (initial) 9.1, 15 minutes (initial)).

Turning to `CCCCCCCCCCCCCCCCCCO` [Stearyl alcohol], in data set [2] (alcohol), the solubility in alcohol entry is given as “soluble”. Besides, the solubility in water entry in data set [2] (water) is given as “insoluble”.
